According to publication PMC11882969 (Nature Communications, 2025):
“And” between values parts separate entries of the source, which are not always exact repeats. Equal values may be shown once. Read-outs that look alike come from different tables or passages of the source.

How the values were obtained:
hCB1 = hCB1 (Homo sapiens, UniProt P21554); assay: bioSensAll ebBRET signaling profiling, hCB1; type: cell-based; design: host or cells: HEK293SL cells, transient PEI transfection; conditions: for RE, relative efficacy: vs CP-55,940; for EC50: read-out: EC50 [95% CI]; for Emax: normalized to CP-55,940
CB1 (rCB1) = CB1 (rCB1) (Rattus norvegicus, UniProt P20272); assay: Radioligand competition binding, [3H]-CP-55,940, rat brain membranes; conditions: for radioligand binding, competition curve point (normalized): log[drug], replicate columns
Chain of CB1 (rCB1) (P20272 whole entry): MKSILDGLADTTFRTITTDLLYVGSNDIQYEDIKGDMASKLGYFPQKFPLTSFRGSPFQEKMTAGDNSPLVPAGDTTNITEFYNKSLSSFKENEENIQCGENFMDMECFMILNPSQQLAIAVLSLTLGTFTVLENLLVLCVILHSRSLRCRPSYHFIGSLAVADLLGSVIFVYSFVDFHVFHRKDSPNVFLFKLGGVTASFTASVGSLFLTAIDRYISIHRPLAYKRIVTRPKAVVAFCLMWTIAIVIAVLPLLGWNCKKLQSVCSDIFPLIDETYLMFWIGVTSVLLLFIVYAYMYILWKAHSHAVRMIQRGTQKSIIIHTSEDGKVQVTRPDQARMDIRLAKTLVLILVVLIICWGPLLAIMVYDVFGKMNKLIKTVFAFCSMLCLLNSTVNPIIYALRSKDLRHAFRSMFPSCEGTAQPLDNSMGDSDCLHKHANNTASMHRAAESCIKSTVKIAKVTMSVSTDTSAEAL

Chain of hCB1 (P21554 whole entry): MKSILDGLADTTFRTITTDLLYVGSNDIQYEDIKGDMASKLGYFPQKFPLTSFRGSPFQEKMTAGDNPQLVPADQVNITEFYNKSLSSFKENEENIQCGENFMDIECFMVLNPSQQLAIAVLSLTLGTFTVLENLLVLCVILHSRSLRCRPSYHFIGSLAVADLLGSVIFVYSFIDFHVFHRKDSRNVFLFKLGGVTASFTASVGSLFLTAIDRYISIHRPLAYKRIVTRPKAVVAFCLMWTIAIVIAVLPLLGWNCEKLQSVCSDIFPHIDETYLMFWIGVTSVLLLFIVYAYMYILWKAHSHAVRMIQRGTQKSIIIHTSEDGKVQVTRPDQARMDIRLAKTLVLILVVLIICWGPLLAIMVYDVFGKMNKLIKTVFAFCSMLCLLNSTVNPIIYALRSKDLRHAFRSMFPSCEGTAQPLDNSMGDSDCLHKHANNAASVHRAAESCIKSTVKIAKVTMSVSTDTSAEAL

COC(=O)[C@@](C)(NC(=O)c1cc(C)n(-c2cccc(C(F)(F)F)c2)n1)c1cccs1 [‘1350]
G15 hCB1 (hCB1; Log [Compound] (M) -8.22186): 108.751 and 98.1326
Gi1 hCB1 (hCB1; Log [Compound] (M) -8.22186): 92.6788 and 89.3236 and 99.6444
Gi2 hCB1 (hCB1; Log [Compound] (M) -8.22186): 103.598 and 95.5013
GoB hCB1 (hCB1; Log [Compound] (M) -8.22186): 98.7737 and 93.6765
Gq hCB1 (hCB1; Log [Compound] (M) -8.22186): 1076
Gs hCB1 (hCB1; Log [Compound] (M) -8.22186): 6277
Gz hCB1 (hCB1; Log [Compound] (M) -8.22186): 86.1167 and 125.84
Barr2+GRK2 hCB1 (hCB1; Log [Compound] (M) -8.39794): 29.9976 and 37.6342 and 37.3728
G15 hCB1 (hCB1; Log [Compound] (M) -8.39794): 102.447 and 90.505
Gi1 hCB1 (hCB1; Log [Compound] (M) -8.39794): 89.9355 and 81.3893 and 90.8265
Gi2 hCB1 (hCB1; Log [Compound] (M) -8.39794): 93.2678 and 81.238
GoB hCB1 (hCB1; Log [Compound] (M) -8.39794): 91.7888 and 85.5166 and 90.3229
Gq hCB1 (hCB1; Log [Compound] (M) -8.39794): 1079
Gs hCB1 (hCB1; Log [Compound] (M) -8.39794): 6774
Gz hCB1 (hCB1; Log [Compound] (M) -8.39794): 90.3591 and 90.0229
G13 hCB1 (hCB1; Log [Compound] (M) -8.68787): 53.1584 and 35.4081
G15 hCB1 (hCB1; Log [Compound] (M) -8.68787): 102.996 and 87.3488
Gi1 hCB1 (hCB1; Log [Compound] (M) -8.68787): 91.5518 and 80.8983 and 96.1797
Gi2 hCB1 (hCB1; Log [Compound] (M) -8.68787): 100.616 and 73.0934
GoB hCB1 (hCB1; Log [Compound] (M) -8.68787): 87.9026 and 94.3015 and 102.463
Gq hCB1 (hCB1; Log [Compound] (M) -8.68787): 1093
Gs hCB1 (hCB1; Log [Compound] (M) -8.68787): 6188
Gz hCB1 (hCB1; Log [Compound] (M) -8.68787): 71.525 and 105.899
G13 hCB1 (hCB1; Log [Compound] (M) -9.15521): 29.8642 and 17.8839
G15 hCB1 (hCB1; Log [Compound] (M) -9.15521): 73.5984 and 77.2225
Gi1 hCB1 (hCB1; Log [Compound] (M) -9.15521): 81.1718 and 69.1157 and 80.6507
Gi2 hCB1 (hCB1; Log [Compound] (M) -9.15521): 77.4138 and 61.2639
GoB hCB1 (hCB1; Log [Compound] (M) -9.15521): 71.2656 and 63.2418 and 86.0488
Gq hCB1 (hCB1; Log [Compound] (M) -9.15521): 979
Gs hCB1 (hCB1; Log [Compound] (M) -9.15521): 6053
Gz hCB1 (hCB1; Log [Compound] (M) -9.15521): 50.0303 and 83.0974
G15 hCB1 (hCB1; Log [Compound] (M) -9.61989): 46.4936 and 49.8683
Gi1 hCB1 (hCB1; Log [Compound] (M) -9.61989): 46.5026 and 32.8966 and 52.9951
Gi2 hCB1 (hCB1; Log [Compound] (M) -9.61989): 46.1296 and 39.0463
GoB hCB1 (hCB1; Log [Compound] (M) -9.61989): 41.2683 and 36.2447 and 42.156
Gq hCB1 (hCB1; Log [Compound] (M) -9.61989): 993
Gs hCB1 (hCB1; Log [Compound] (M) -9.61989): 6331
G15 hCB1 (hCB1; Log [Compound] (M) -10.0969): 22.2784 and 20.2785
Gi2 hCB1 (hCB1; Log [Compound] (M) -10.0969): 20.3201 and 12.6408
GoB hCB1 (hCB1; Log [Compound] (M) -10.0969): 15.6017 and 12.0427 and 18.9365
Gq hCB1 (hCB1; Log [Compound] (M) -10.0969): 1040
Gs hCB1 (hCB1; Log [Compound] (M) -10.0969): 6351
G15 hCB1 (hCB1; Log [Compound] (M) -10.5529): 10.1469 and 8.811
Gq hCB1 (hCB1; Log [Compound] (M) -10.5529): 1032
Gs hCB1 (hCB1; Log [Compound] (M) -10.5529): 6578
Gq hCB1 (hCB1; Log [Compound] (M) -11.0177): 1054
Gs hCB1 (hCB1; Log [Compound] (M) -11.0177): 6308
Gq hCB1 (hCB1; Log [Compound] (M) -11.4949): 1050
Gs hCB1 (hCB1; Log [Compound] (M) -11.4949): 6446
Gq hCB1 (hCB1; Log [Compound] (M) -11.9208): 1129
Gs hCB1 (hCB1; Log [Compound] (M) -11.9208): 6648
Gq hCB1 (hCB1; Log [Compound] (M) -12.3979): 1059
Gs hCB1 (hCB1; Log [Compound] (M) -12.3979): 6648
Gq hCB1 (hCB1; Log [Compound] (M) -12.8861): 1070
Gs hCB1 (hCB1; Log [Compound] (M) -12.8861): 6918
pEC50 [95% CI] (hCB1; hCB1 G13): 9.08 [8.6 – 9.6]
RE, relative efficacy (hCB1; hCB1 G13): 1.64
RE, relative efficacy (hCB1; hCB1 G15): 1.14
pEC50 [95% CI] (hCB1; hCB1 Gi1): 9.63 [9.5 – 9.7]
RE, relative efficacy (hCB1; hCB1 Gi1): 1.98
RE, relative efficacy (hCB1; hCB1 Gi2): 1.89
RE, relative efficacy (hCB1; hCB1 GoB): 2.24
RE, relative efficacy (hCB1; hCB1 Gz): 0.77
RE, relative efficacy (hCB1; hCB1 ßarr2+GRK2): 1.16
EC50 (hCB1; hCB1 Barr2 + GRK2): 2.2 nM
EC50 (hCB1; hCB1 G13): 0.83 nM
EC50 (hCB1; hCB1 G15): 0.22 nM
EC50 (hCB1; hCB1 Gi1): 0.23 nM
EC50 (hCB1; hCB1 Gi2): 0.28 nM
EC50 (hCB1; hCB1 GoB): 0.29 nM
EC50 (hCB1; hCB1 Gz): 0.35 nM
Emax (hCB1; read-out: Emax [95% CI], hCB1 Barr2 + GRK2): 63%
Emax (hCB1; read-out: Emax [95% CI], hCB1 G13): 56%
Emax (hCB1; read-out: Emax [95% CI], hCB1 G15): 99%
Emax (hCB1; read-out: Emax [95% CI], hCB1 Gi1): 92%
Emax (hCB1; read-out: Emax [95% CI], hCB1 Gi2): 95%
Emax (hCB1; read-out: Emax [95% CI], hCB1 GoB): 98%
Emax (hCB1; read-out: Emax [95% CI], hCB1 Gz): 94%
LLE (lipophilic ligand efficiency) (CB1 (rCB1); LLE = pIC50 − clogP): 4.7
LE (ligand efficiency) (CB1 (rCB1); from rCB1 affinity): 0.41
pKi [95% CI] (CB1 (rCB1); rCB1): 9.0 [8.9 – 9.1] and 9.02 [8.9 – 9.1]
radioligand binding, competition curve point (normalized) (CB1 (rCB1); rCB1, M = -6.643): -0.744 and -7.487 and -3.298
radioligand binding, competition curve point (normalized) (CB1 (rCB1); rCB1, M = -7.357): -0.8036 and -4.1 and -0.2377
radioligand binding, competition curve point (normalized) (CB1 (rCB1); rCB1, M = -8.07): 10.2232 and 5.66 and 5.585
radioligand binding, competition curve point (normalized) (CB1 (rCB1); rCB1, M = -8.783): 48.7054 and 44.7118 and 50.1783
radioligand binding, competition curve point (normalized) (CB1 (rCB1); rCB1, M = -9.496): 85.9821 and 91.8301 and 85.5615
radioligand binding, competition curve point (normalized) (CB1 (rCB1); rCB1, M = -10.21): 99.5833 and 109.715 and 87.0469
radioligand binding, competition curve point (normalized) (CB1 (rCB1); rCB1, M = -11.923): 90.0893 and 95.7219 and 98.7077
radioligand binding, competition curve point (normalized) (CB1 (rCB1); rCB1, M = -13.636): 93.4375 and 98.1283
fold more potent than CP-55,940 (CB1 (rCB1); rCB1 binding): 3 fold
fold improvement in CB1R affinity (CB1 (rCB1); vs parent hit or analog without the change): ~50 fold
